Source: patent US10051857B2, “Formulation component” (SYNGENTA LIMITED, priority 2011, dated 2018)

Tests used:
Format in all cases: in vivo
[1] = tested on: four weed species (ABUTH, CHEAL, SETVI, XANST); experiment: Glasshouse adjuvant test with fomesafen (Example 3), mean across species; conditions: fomesafen 60 or 120 g/ha, adjuvant 0.2% v/v or none
Method: (§1) Compound No. 2 was tested in a glasshouse against four weed species in combination with the herbicide fomesafen. An agrochemical composition was prepared containing 0.2% v/v of the adjuvant in a track sprayer and was applied at a volume of 200 liters per hectare. Fomesafen was applied at either 60 or 120 grams of pesticide per hectare on weeds which had been grown to the 1.3 or 1.4 leaf stage. The weed species were Chenopodium album (CHEAL), Abutilon theophrasti (ABUTH), Setaria viridis (SETVI), and Xanthium strumarium (XANST).
(§2) Each spray test was replicated six times. The efficacy of the herbicide was assessed visually and expressed as a percentage of the leaf area killed. Samples were assessed at time periods of 7 and 14 days following application. The results shown in Table 3 below are mean averages over the two rates of fomesafen, six replicates and the two assessment timings, and are compared to the efficacy of fomesafen in the absence of adjuvant.

[2] = tested on: four weed species (CHEAL, ABUTH, BRAPP, DIGSA); experiment: Glasshouse adjuvant test with nicosulfuron (Example 2), mean of species
Method: (§3) Compound No. 2 (see Example 1 and Table 1 above) was tested in a glasshouse against four weed species in combination with the herbicide nicosulfuron. An agrochemical composition was prepared containing 0.2% v/v of the adjuvant in a track sprayer and was applied at a volume of 200 liters per hectare. Nicosulfuron was applied at either 30 or 60 grams of pesticide per hectare on weeds which had been grown to the 1.3 or 1.4 leaf stage. The weed species were Chenopodium album (CHEAL), Abutilon theophrasti (ABUTH), […] (BRAPP), and Digitaria sanguinalis (DIGSA).
(§4) Each spray test was replicated three times. The efficacy of the herbicide was assessed visually and expressed as a percentage of the leaf area killed. Samples were assessed at time periods of 7, 14 and 21 days. following application. The results shown in Table 2 below are mean averages over the two rates of nicosulfuron, three replicates and the three assessment timings.

[3] = tested on: Abutilon theophrasti (ABUTH); experiment: Glasshouse adjuvant test with mesotrione (Example 4); conditions: mesotrione 60 or 120 g/ha, adjuvant 0.2% v/v, 200 l/ha; leaf area killed; mean over two rates, six replicates, 6, 14 and 21 days
Method: (§5) Compound No. 2 was tested in a glasshouse against four weed species in combination with the herbicide mesotrione. An agrochemical composition was prepared containing 0.2% v/v of the adjuvant in a track sprayer and was applied at a volume of 200 liters per hectare. Mesotrione was applied at either 60 or 120 grams of pesticide per hectare on weeds which had been grown to the 1.3 or 1.4 leaf stage. The weed species were Amaranthus retroflexus (AMARE), Abutilon theophrasti (ABUTH), Brachiaria platyphylla (BRAPP), and Digitaria sanguinalis (DIGSA).
(§6) Each spray test was replicated six times. The efficacy of the herbicide was assessed visually and expressed as a percentage of the leaf area killed. Samples were assessed at time periods of 6, 14 and 21 days following application. The results shown in Table 4 below are mean averages over the two rates of mesotrione, six replicates and the three assessment timings. The results are compared to those obtained for mesotrione in combination with the commercially available tank mix adjuvant Turbocharge® D (Syngenta Crop Protection Canada, Inc.).

[4] = tested on: Amaranthus retroflexus (AMARE); experiment: as above; conditions: mesotrione 60 or 120 g/ha, adjuvant 0.2% v/v, 200 l/ha; leaf area killed; mean over two rates, six replicates, 6, 14 and 21 days
Method: as §5, §6

[5] = tested on: Brachiaria platyphylla (BRAPP); experiment: as above; conditions: mesotrione 60 or 120 g/ha, adjuvant 0.2% v/v, 200 l/ha; leaf area killed; mean over two rates, six replicates, 6, 14 and 21 days
Method: as §5, §6

[6] = tested on: Digitaria sanguinalis (DIGSA); experiment: as above; conditions: mesotrione 60 or 120 g/ha, adjuvant 0.2% v/v, 200 l/ha; leaf area killed; mean over two rates, six replicates, 6, 14 and 21 days
Method: as §5, §6

[7] = tested on: Xanthium strumarium (XANST); experiment: Glasshouse adjuvant test with fomesafen (Example 3); conditions: fomesafen 60 or 120 g/ha, adjuvant 0.2% v/v or none, 200 l/ha; leaf area killed; mean over two rates, six replicates, 7 and 14 days
Method: as §1, §2

[8] = tested on: Abutilon theophrasti (ABUTH); experiment: as above; conditions: fomesafen 60 or 120 g/ha, adjuvant 0.2% v/v or none, 200 l/ha; leaf area killed; mean over two rates, six replicates, 7 and 14 days
Method: as §1, §2

[9] = tested on: Setaria viridis (SETVI); experiment: as above; conditions: fomesafen 60 or 120 g/ha, adjuvant 0.2% v/v or none, 200 l/ha; leaf area killed; mean over two rates, six replicates, 7 and 14 days
Method: as §1, §2

[10] = tested on: Chenopodium album (CHEAL); experiment: as above; conditions: fomesafen 60 or 120 g/ha, adjuvant 0.2% v/v or none, 200 l/ha; leaf area killed; mean over two rates, six replicates, 7 and 14 days
Method: as §1, §2

[11] = tested on: four weed species (AMARE, ABUTH, BRAPP, DIGSA); experiment: Glasshouse adjuvant test with mesotrione (Example 4), mean across species; conditions: mesotrione 60 or 120 g/ha, adjuvant 0.2% v/v
Method: as §5, §6

[12] = tested on: Abutilon theophrasti (ABUTH); experiment: Glasshouse adjuvant test with nicosulfuron (Example 2); conditions: nicosulfuron 30 or 60 g/ha, adjuvant 0.2% v/v, 200 l/ha; leaf area killed; mean over two rates, three replicates, 7, 14 and 21 days
Method: as §3, §4

[13] = tested on: Brassica perenni (BRAPP); experiment: as above; conditions: nicosulfuron 30 or 60 g/ha, adjuvant 0.2% v/v, 200 l/ha; leaf area killed; mean over two rates, three replicates, 7, 14 and 21 days
Method: as §3, §4

[14] = tested on: Digitaria sanguinalis (DIGSA); experiment: as above; conditions: nicosulfuron 30 or 60 g/ha, adjuvant 0.2% v/v, 200 l/ha; leaf area killed; mean over two rates, three replicates, 7, 14 and 21 days
Method: as §3, §4

[15] = tested on: Chenopodium album (CHEAL); experiment: as above; conditions: nicosulfuron 30 or 60 g/ha, adjuvant 0.2% v/v, 200 l/ha; leaf area killed; mean over two rates, three replicates, 7, 14 and 21 days
Method: as §3, §4

CCCCCCCCCCCCc1ccc(C(=O)NCCOCCOCCOCCOCCOCCOCCOCCO)cc1 [Compound 2, 4-DODECYL-N-[2-(2-{2-[2-(2-{2-[2-(2-HYDROXY-ETHOXY)-ETHOXY]-ETHOXY}-ETHOXY)-ETHOXY]-ETHOXY}-ETHOXY)-ETHYL]-BENZAMIDE]
Mean percentage kill, Mean across species [1]: 58.6% | Mean percentage kill, Mean (g/ha) ([2]; nicosulfuron 30 or 60 g/ha, adjuvant 0.2% v/v, mean of the four weed species): 73.9% | weed control compared to Turbocharge D ([2]; nicosulfuron formulation with adjuvant, in each case (all four weed species)): superior weed control | Mean percentage kill ABUTH [3]: 73.3% | Mean percentage kill AMARE [4]: 63.5% | Mean percentage kill BRAPP [5]: 68.2% | Mean percentage kill DIGSA [6]: 83.4% | Mean percentage kill XANST [7]: 68.8% | Mean percentage kill ABUTH [8]: 90% | Mean percentage kill SETVI [9]: 41.7% | Mean percentage kill CHEAL [10]: 34.1% | Mean percentage kill, Mean across species [11]: 72.1% | Mean percentage kill ABUTH [12]: 47.1% | Mean percentage kill BRAPP [13]: 86.4% | Mean percentage kill DIGSA [14]: 83.1% | Mean percentage kill CHEAL [15]: 80%
